Test results taken from US8084479B2, “Thiazole compounds and methods of use” (Amgen Inc., priority 2006, dated 2011).

Biological target: PKBα (Homo sapiens, UniProt P31749)
Assay: PKB kinase assay (P33-labeled ATP, peptide substrate, filter plate)
Format: biochemical
Conditions: PKBα enzyme (full length or kinase domain with pleckstrin domain deleted)
From the text: The kinase assay for evaluating PKB activity comprises active PKB enzymes, a PKB specific substrate, and P^33-labeled ATP. […] The phosphorylated substrate was captured by a phosphocellulose membrane filter plate (MLLIPORE) and measured by a Wallac Microbeta liquid scintillation counter (Perkin Elmer).

Chain of PKBα (P31749 118-480 limits assumed): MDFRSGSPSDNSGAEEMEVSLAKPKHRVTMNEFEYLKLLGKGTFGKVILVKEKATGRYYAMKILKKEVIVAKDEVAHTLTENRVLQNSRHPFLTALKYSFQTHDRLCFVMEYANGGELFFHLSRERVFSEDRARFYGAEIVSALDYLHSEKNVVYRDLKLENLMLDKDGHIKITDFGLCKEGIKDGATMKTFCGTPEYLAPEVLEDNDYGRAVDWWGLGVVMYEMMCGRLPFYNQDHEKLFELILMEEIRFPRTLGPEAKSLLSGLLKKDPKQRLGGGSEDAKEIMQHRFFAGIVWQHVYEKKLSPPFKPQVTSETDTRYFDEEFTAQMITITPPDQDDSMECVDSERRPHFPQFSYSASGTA

| IC50 | Structure (SMILES) |
| --- | --- |
| 50 to 1000 nM | COCc1nc(NC[C@H](Cc2ccc(C(F)(F)F)cc2)NCCN2CCOCC2)sc1-c1nc2ccncc2s1 [Example 34, 4-(Methoxymethyl)-N—((S)-2-(2-morpholinoethylamino)-3-(4-(trifluoromethyl)phenyl)propyl)-5-(thiazolo[5,4-c]pyridin-2-yl)thiazol-2-amine] |
| < 50 nM | Cn1c(=O)[nH]c2ccc(-c3cnc(NC[C@@H](N)Cc4ccc(C(F)(F)F)cc4)s3)cc21 [Example 57, 6-(2-((S)-2-amino-3-(4-(trifluoromethyl)phenyl)propylamino)thiazol-5-yl)-1-methyl-1H-benzo[d]imidazol-2(3H)-one] |
| < 50 nM | N[C@H](CNc1nc(CO)c(-c2ccc3c(c2)CC(=O)N3)s1)Cc1ccc(C(F)(F)F)cc1 [Example 123, 5-(2-((S)-2-Amino-3-(4-(trifluoromethyl)phenyl)propylamino)-4-(hydroxymethyl)thiazol-5-yl)indolin-2-one] |
| 50 to 1000 nM | CCOCc1nc(NC[C@@H](N)Cc2ccc(Cl)cc2)sc1-c1nc2ccncc2s1 [Example 77, N—((S)-2-amino-3-(4-chlorophenyl)propyl)-4-(ethoxymethyl)-5-(thiazolo[5,4-c]pyridin-2-yl)thiazol-2-amine] |
| 50 to 1000 nM | N[C@H](CNc1ncc(-c2ccc3c(c2)C2(CC2)C(=O)N3)s1)Cc1ccc(C(F)(F)F)cc1 [Example 199, 5′-(2-((S)-2-amino-3-(4-(trifluoromethyl)phenyl)propylamino)thiazol-5-yl)spiro[cyclopropane-1,3′-indol]-2′(1′H)-one] |
| 1000 to 10000 nM | CS(=O)(=O)NCC#Cc1nc(NC[C@@H](N)Cc2ccc(C(F)(F)F)cc2)sc1-c1ccc2cnccc2c1 [Example 151, N-(3-(2-((S)-2-amino-3-(4-(trifluoromethyl)phenyl)propylamino)-5-(isoquinolin-6-yl)thiazol-4-yl)prop-2-ynyl)methanesulfonamide] |
| 50 to 1000 nM | N[C@H](CNc1nc(-c2cccnc2)c(-c2ccc3cnccc3c2)s1)Cc1ccc(C(F)(F)F)cc1 [Example 104, N—((S)-2-Amino-3-(4-(trifluoromethyl)phenyl)propyl)-5-(isoquinolin-6-yl)-4-(pyridin-3-yl)thiazol-2-amine] |
| 50 to 1000 nM | COC(C)c1nc(NC[C@@H](N)Cc2ccc(C(F)(F)F)cc2)sc1-c1ccc2cnccc2c1 (stereo partly drawn) [Example 16, N—((S)-2-amino-3-(4-(trifluoromethyl)phenyl)propyl)-5-(isoquinolin-6-yl)-4-(1-methoxyethyl)thiazol-2-amine] |
| < 50 nM | N[C@H](CNc1ncc(-c2ccc3cnccc3c2)s1)Cc1ccc(C(F)(F)F)cc1 [Example 6, N—((S)-2-amino-3-(4-(trifluoromethyl)phenyl)propyl)-5-(isoquinolin-6-yl)thiazol-2-amine] |
| 50 to 1000 nM | N[C@H](CNc1ncc(-c2ccc3c(c2)C(F)(F)C(=O)N3)s1)Cc1ccc(C(F)(F)F)cc1 [Example 41, 5-(2-((S)-2-amino-3-(4-(trifluoromethyl)phenyl)propylamino)thiazol-5-yl)-3,3-difluoroindolin-2-one] |
| 50 to 1000 nM | N[C@H](CNc1ncc(-c2ccc3cnccc3c2)s1)Cc1cc(F)cc(F)c1 [Example 161, N—((S)-2-amino-3-(3,5-difluorophenyl)propyl)-5-(isoquinolin-6-yl)thiazol-2-amine] |
| 50 to 1000 nM | CC(C)(O)C#Cc1nc(NC[C@@H](N)Cc2ccc(C(F)(F)F)cc2)sc1-c1ccc2cnccc2c1 [Example 79, 4-(2-((S)-2-Amino-3-(4-(trifluoromethyl)phenyl)propylamino)-5-(isoquinolin-6-yl)thiazole-4-yl)-2-methylbut-3-yn-2-ol] |
| < 50 nM | COCc1nc(NC[C@@H](N)Cc2ccc(C(F)(F)F)cc2)sc1-c1ccc2c(c1)CC(=O)N2 [Example 69, 5-(2-((S)-2-amino-3-(4-(trifluoromethyl)phenyl)propylamino)-4-(methoxymethyl)thiazol-5-yl)indolin-2-one] |
| 1000 to 10000 nM | CC(=O)N[C@H](CNc1ncc(-c2ccc3c(c2)CC(=O)N3)s1)Cc1ccc(C(F)(F)F)cc1 [Example 128, N—((S)-1-(5-(2-Oxoindolin-5-yl)thiazol-2-ylamino)-3-(4-(trifluoro-methyl)phenyl)propan-2-yl)acetamide] |
| 50 to 1000 nM | N[C@H](CNc1ncc(-c2ccc3[nH]c(=O)oc3c2)s1)Cc1cc(F)cc(F)c1 [Example 164, 6-(2-((S)-2-amino-3-(3,5-difluorophenyl)propylamino)thiazol-5-yl)benzo[d]oxazol-2(3H)one] |
| 50 to 1000 nM | N[C@H](CNc1ncc(-c2ccc3c(c2)CC(=O)N3)s1)Cc1ccc(Cl)cc1Cl [Example 113, 5-(2-((S)-2-Amino-3-(2,4-dichlorophenyl)propylamino)thiazol-5-yl)indolin-2-one] |
| 50 to 1000 nM | COCc1nc(NC[C@@H](N)Cc2ccc(C(F)(F)F)cc2)sc1-c1ccc2[nH]nc(C)c2c1 [Example 15, N—((S)-2-amino-3-(4-(trifluoromethyl)phenyl)propyl)-4-(methoxymethyl)-5-(3-methyl-1H-indazol-5-yl)thiazol-2-amine] |
| 1000 to 10000 nM | NC(=O)c1nc(NC[C@@H](N)Cc2ccc(C(F)(F)F)cc2)sc1-c1ccc2cnccc2c1 [Example 121, 2-((S)-2-amino-3-(4-(trifluoromethyl)phenyl)propylamino)-5-(isoquinolin-6-yl)thiazole-4-carboxamide] |

| IC50 | Structure (SMILES) |
| --- | --- |
| 50 to 1000 nM | N[C@H](CNc1ncc(-c2ccc3[nH]c(=O)sc3c2)s1)Cc1c[nH]c2ccccc12 [Example 35, 6-(2-((S)-2-amino-3-(1H-indol-3-yl)propylamino)thiazol-5-yl)benzo[d]thiazol-2(3H)-one] |
| < 50 nM | N[C@H](CNc1ncc(-c2ccc3cnccc3c2)s1)Cc1ccc(C(F)(F)F)c(F)c1 [Example 83, N—((S)-2-Amino-3-(3-fluoro-4-(trifluoromethyl)phenyl)propyl)-5-(isoquinolin-6-yl)thiazol-2-amine] |
| 1000 to 10000 nM | N[C@H](CNc1ncc(-c2nc3ccncc3s2)s1)Cc1cccc(C(F)(F)F)c1 [Example 31, N—((S)-2-amino-3-(3-(trifluoromethyl)phenyl)propyl)-5-(thiazolo[5,4-c]pyridin-2-yl)thiazol-2-amine] |
| 50 to 1000 nM | CNCc1nc(NC[C@@H](N)Cc2ccc(C(F)(F)F)cc2)sc1-c1ccc2cnccc2c1 [Example 56, N—((S)-2-amino-3-(4-(trifluoromethyl)phenyl)propyl)-5-(isoquinolin-6-yl)-4-((methylamino)methyl)thiazol-2-amine] |
| < 50 nM | COc1cc(C[C@H](N)CNc2ncc(-c3ccc4[nH]c(=O)oc4c3)s2)ccc1C(F)(F)F [Example 207, 6-(2-((S)-2-amino-3-(3-methoxy-4-(trifluoromethyl)phenyl)propylamino)thiazol-5-yl)benzo[d]oxazol-2(3H)-one] |
| < 50 nM | NC(CNc1ncc(-c2ccc3c(c2)CC(=O)N3)s1)Cc1ccc(OC(F)(F)F)cc1 (centres unmarked) [Example 188, 5-(2-(-2-amino-3-(4-(trifluoromethoxy)phenyl)propylamino)thiazol-5-yl)indolin-2-one] |
| 50 to 1000 nM | COCc1nc(NC[C@@H](N)Cc2c[nH]c3ccccc23)sc1-c1nc2ccncc2s1 [Example 27, N—((S)-2-amino-3-(1H-indol-3-yl)propyl)-4-(methoxymethyl)-5-(thiazolo[5,4-c]pyridin-2-yl)thiazol-2-amine] |
| < 50 nM | N[C@H](CNc1nc(CO)c(-c2ccc3cnccc3c2)s1)Cc1ccc(C(F)(F)F)cc1 [Example 10, (2-((S)-2-amino-3-(4-(trifluoromethyl)phenyl)propylamino)-5-(isoquinolin-6-yl)thiazol-4-yl)methanol] |
| 50 to 1000 nM | COc1ccc(C[C@H](N)CNc2ncc(-c3ccc4[nH]c(=O)oc4c3)s2)cc1 [Example 78, 6-(2-((S)-2-amino-3-(4-methoxyphenyl)propylamino)thiazol-5-yl)benzo[d]oxazol-2(3H)-one] |
| 50 to 1000 nM | N[C@H](CNc1nc(-c2ccccc2F)c(-c2ccc3cnccc3c2)s1)Cc1ccc(F)cc1 [Example 106, N—((S)-2-Amino-3-(4-fluorophenyl)propyl)-4-(2-fluorophenyl)-5-(isoquinolin-6-yl)thiazol-2-amine] |
| < 50 nM | CNc1cc2cc(-c3cnc(NC[C@@H](N)Cc4ccc(Cl)cc4)s3)ccc2cn1 [Example 139, 6-(2-((S)-2-amino-3-(4-chlorophenyl)propylamino)thiazol-5-yl)-N-methylisoquinolin-3-amine] |
| < 50 nM | CC#Cc1nc(NC[C@@H](N)Cc2ccc(C(F)(F)F)cc2)sc1-c1ccc2[nH]nc(C)c2c1 [Example 153, N—((S)-2-amino-3-(4-(trifluoromethyl)phenyl)propyl)-5-(3-methyl-1H-indazol-5-yl)-4-(prop-1-ynyl)thiazol-2-amine] |
| 50 to 1000 nM | C[C@@H](Nc1ncc(-c2ccc3[nH]c(=O)n(C)c3c2)s1)[C@@H](N)Cc1ccc(C(F)(F)F)cc1 [Example 232, 6-(2-((2R,3S)-3-amino-4-(4-(trifluoromethyl)phenyl)butan-2-ylamino)thiazol-5-yl)-1-methyl-1H-benzo[d]imidazol-2(3H)-one] |
| < 50 nM | N[C@H](CNc1ncc(-c2nc3ccncc3s2)s1)Cc1ccc(Cl)cc1 [Example 99, N—((S)-2-Amino-3-(4-chlorophenyl)propyl)-5-(thiazolo[5,4-c]pyridin-2-yl)thiazol-2-amine] |
| 50 to 1000 nM | N[C@H](CNc1nc(CCO)c(-c2ccc3cnccc3c2)s1)Cc1ccc(C(F)(F)F)cc1 [Example 255, 2-(2-((S)-2-amino-3-(4-(trifluoromethyl)phenyl)propylamino)-5-(isoquinolin-6-yl)thiazol-4-yl)ethanol] |
| 50 to 1000 nM | CC(=O)OC[C@@H](c1ccc(C(F)(F)F)cc1)[C@H](N)CNc1ncc(-c2ccc3c(c2)CC(=O)N3)s1 [Example 248, (2S,3S)-3-amino-4-(5-(2-oxoindolin-5-yl)thiazol-2-ylamino)-2-(4-(trifluoromethyl)phenyl)butyl acetate] |
| 1000 to 10000 nM | COCc1nc(NC[C@@H](N)Cc2cccc(Cl)c2)sc1-c1nc2ccncc2s1 [Example 18, N—((S)-2-amino-3-(3-chlorophenyl)propyl)-4-(methoxymethyl)-5-(thiazolo[5,4-c]pyridin-2-yl)thiazol-2-amine] |
